Experimental findings from patent publication US10766902B2, “Wee-1 inhibiting pyrazolopyrimidinone compounds” (ALMAC DISCOVERY LIMITED, priority 2016, dated 2020) are described below.

The IC50 is the concentration needed to halve the response being measured.

This assay addresses Wee-1 kinase (Homo sapiens (Human), UniProt P30291). In words: Measurement of Wee-1 kinase activity (ADP-Glo luminescence). It is filed as biochemical. The following applies: read-out: Wee1 IC50. The procedure:
Method 1: Measurement of Wee-1 Kinase Activity
In the measurement of Wee-1 activity, a commercial peptide Poly(Lys Tyr(4:1)) hydrobromide was purchased from Sigma Aldrich and used as the substrate. Activated Wee-1 kinase was purchased from Invitrogen (PV3817) and an ADP-Glo luminescent kit was purchased from Promega.
All reactions took place in […] volumes in reaction buffer containing 40 mM Tris-HCl and 20 mM magnesium chloride, supplemented with 0.1 mg/mL bovine serum albumin and 2 mM DTT. Compounds were serially diluted in buffer and 5 μL of each concentration pipetted into a white 384 well plate (Sigma Aldrich M6186). A 5 μL aliquot of the Wee-1 enzyme was added to each well and the plate centrifuged for 1 min to ensure mixing of the enzyme and inhibitor.
The plate was incubated at room temperature for 30 minutes before the addition of 2.0 μg/mL of substrate and 30 μM ATP in a 5 μL aliquot. The plate was centrifuged for one minute and incubated for 1 h at RT.
15 μL of ADP-Glo stop reagent was added to each well to quench the reaction and deplete unconverted ATP. The plate was incubated for a further 40 min in the dark at RT.
30 μL of ADP-Glo kinase detection reagent was added to each well, converting ADP to ATP, catalysing the generation of luciferin by luciferase. The plate was shaken for 1 min, and incubated in the dark for an additional hour.
Luminescence from each well was detected using the Biotek Synergy4 HD plate reader and the percentage inhibition of kinase activity calculated for each inhibitor tested. Positive (kinase only) and negative (no kinase) controls were added to each plate to ensure specific interaction of kinase and inhibitor. The IC50 concentration for each inhibitor was calculated by plotting the percentage kinase inhibition against concentration of inhibitor and the curve generated by non-linear regression fitting.

Wee-1 kinase, sequence (P30291 whole entry): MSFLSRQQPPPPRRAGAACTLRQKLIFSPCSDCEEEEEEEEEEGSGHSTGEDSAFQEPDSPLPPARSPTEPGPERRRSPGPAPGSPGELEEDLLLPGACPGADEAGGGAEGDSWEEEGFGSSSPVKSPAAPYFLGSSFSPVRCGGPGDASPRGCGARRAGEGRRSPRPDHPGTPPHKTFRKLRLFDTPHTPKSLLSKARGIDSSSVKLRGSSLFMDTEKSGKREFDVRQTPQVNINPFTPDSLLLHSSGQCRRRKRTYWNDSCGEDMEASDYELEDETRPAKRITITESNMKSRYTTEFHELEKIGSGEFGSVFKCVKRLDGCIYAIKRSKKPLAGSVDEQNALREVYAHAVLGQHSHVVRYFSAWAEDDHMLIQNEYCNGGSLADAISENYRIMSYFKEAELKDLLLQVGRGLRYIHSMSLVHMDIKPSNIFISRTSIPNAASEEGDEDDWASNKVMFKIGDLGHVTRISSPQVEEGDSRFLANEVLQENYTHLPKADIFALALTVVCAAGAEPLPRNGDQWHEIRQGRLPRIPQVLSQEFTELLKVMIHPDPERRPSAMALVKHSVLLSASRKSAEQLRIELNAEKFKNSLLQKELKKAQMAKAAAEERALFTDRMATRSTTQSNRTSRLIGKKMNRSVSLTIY

`CC(C)n1c(=O)c2cnc(Nc3ccc(F)cc3)nc2n1-c1cccc(N=S(C)(C)=O)n1` [Example 41, 1-(6-{[Dimethyl(oxo)-λ^6-sulfanylidene]amino}pyridin-2-yl)-6-[(4-fluorophenyl)amino]-2-(propan-2-yl)-1H,2H,3H-pyrazolo[3,4-d]pyrimidin-3-one]: the IC50 came to 4.9 nM.

`COc1ccc(Nc2ncc3c(=O)n(C(C)C)n(-c4cccc(N=S(C)(C)=O)n4)c3n2)cc1` [Example 42, 1-(6-{[Dimethyl(oxo)-λ^6-sulfanylidene]amino}pyridin-2-yl)-6-[(4-methoxyphenyl)amino]-2-(propan-2-yl)-1H,2H,3H-pyrazolo[3,4-d]pyrimidin-3-one]: the IC50 came to 1.1 nM. Regarding `CC(C)n1c(=O)c2cnc(Nc3ccc(N4CCOCC4)cc3)nc2n1-c1cccc(N=S(C)(C)=O)n1` [Example 43, 1-(6-{[Dimethyl(oxo)-λ^6-sulfanylidene]amino}pyridin-2-yl)-6-{[4-(morpholin-4-yl)phenyl]amino}-2-(propan-2-yl)-1H,2H,3H-pyrazolo[3,4-d]pyrimidin-3-one], the IC50 worked out at 0.4 nM.

In the case of `C=CCn1c(=O)c2cnc(Nc3ccc(N4CCOCC4)cc3)nc2n1-c1cncc(N=S(C)(C)=O)c1` [Example 44, 1-(5-{[Dimethyl(oxo)-λ^6-sulfanylidene]amino}pyridin-3-yl)-6-{[4-(morpholin-4-yl)phenyl]amino}-2-(prop-2-en-1-yl)-1H,2H,3H-pyrazolo[3,4-d]pyrimidin-3-one], the IC50 is 20.3 nM. As for `CC(C)n1c(=O)c2cnc(Nc3ccc(N4CCCNCC4)cc3)nc2n1-c1cccc(N=S(C)(C)=O)n1` [Example 46, 6-{[4-(1,4-Diazepan-1-yl)phenyl]amino}-1-(6-{[dimethyl(oxo)-λ^6-sulfanylidene]amino}pyridin-2-yl)-2-(propan-2-yl)-1H,2H,3H-pyrazolo[3,4-d]pyrimidin-3-one], the figure is 0.9 nM. With `CC(C)n1c(=O)c2cnc(NC3CCC3)nc2n1-c1cccc(N=S(C)(C)=O)n1` [Example 47, 6-(Cyclobutylamino)-1-(6-{[dimethyl(oxo)-λ^6-sulfanylidene]amino}pyridin-2-yl)-2-(propan-2-yl)-1H,2H,3H-pyrazolo[3,4-d]pyrimidin-3-one], the IC50 is 67 nM. As for `CC(C)n1c(=O)c2cnc(Nc3ccc(N4CCNC(=O)C4)cc3)nc2n1-c1cccc(N=S(C)(C)=O)n1` [Example 48, 4-(4-{[1-(6-{[Dimethyl(oxo)-λ^6-sulfanylidene]amino}pyridin-2-yl)-3-oxo-2-(propan-2-yl)-1H,2H,3H-pyrazolo[3,4-d]pyrimidin-6-yl]amino}phenyl)piperazin-2-one], the figure is 0.9 nM; as for `CC(C)n1c(=O)c2cnc(Nc3ccc(N4CCN(CC(F)(F)F)CC4)cc3)nc2n1-c1cccc(N=S(C)(C)=O)n1` [Example 50, 1-(6-{[Dimethyl(oxo)-λ^6-sulfanylidene]amino}pyridin-2-yl)-2-(propan-2-yl)-6-({4-[4-(2,2,2-trifluoroethyl)piperazin-1-yl]phenyl}amino)-1H,2H,3H-pyrazolo[3,4-d]pyrimidin-3-one], 0.4 nM; as for `C=CCn1c(=O)c2cnc(Nc3ccc(N4CCOCC4)cc3)nc2n1-c1cncc(N=S(C)(C)=O)n1` [Example 51, 1-(6-{[Dimethyl(oxo)-λ^6-sulfanylidene]amino}pyrazin-2-yl)-6-{[4-(morpholin-4-yl)phenyl]amino}-2-(prop-2-en-1-yl)-1H,2H,3H-pyrazolo[3,4-d]pyrimidin-3-one], 0.6 nM.

As for `C=CCn1c(=O)c2cnc(Nc3ccc(N4CCOCC4)cc3)nc2n1-c1nccc(N=S(C)(C)=O)n1` [Example 52, 1-(4-{[Dimethyl(oxo)-λ^6-sulfanylidene]amino}pyrimidin-2-yl)-6-{[4-(morpholin-4-yl)phenyl]amino}-2-(prop-2-en-1-yl)-1H,2H,3H-pyrazolo[3,4-d]pyrimidin-3-one], the IC50 came to 0.8 nM. Turning to `COC[C@@H]1CN(c2ccc(Nc3ncc4c(=O)n(C(C)C)n(-c5cccc(N=S(C)(C)=O)n5)c4n3)cc2)CCO1` [Example 53, 1-(6-{[Dimethyl(oxo)-λ^6-sulfanylidene]amino}pyridin-2-yl)-6-({4-[(2S)-2-(methoxymethyl)morpholin-4-yl]phenyl}amino)-2-(propan-2-yl)-1H,2H,3H-pyrazolo[3,4-d]pyrimidin-3-one], the IC50 was determined as 0.5 nM. Consider `CC(C)n1c(=O)c2cnc(Nc3ccc(F)cc3)nc2n1-c1cccc(N=S2(=O)CCCC2)n1` [Example 55, 6-[(4-Fluorophenyl)amino]-1-{6-[(1-oxo-1λ^6-thiolan-1-ylidene)amino]pyridin-2-yl}-2-(propan-2-yl)-1H,2H,3H-pyrazolo[3,4-d]pyrimidin-3-one], for which the half-inhibitory concentration (IC50) was determined as 13.3 nM. Take `CC(C)n1c(=O)c2cnc(Nc3cnn(C)c3)nc2n1-c1cccc(N=S2(=O)CCCC2)n1` [Example 56, 6-[(1-Methyl-1H-pyrazol-4-yl)amino]-1-{6-[(1-oxo-1λ^6-thiolan-1-ylidene)amino]pyridin-2-yl}-2-(propan-2-yl)-1H,2H,3H-pyrazolo[3,4-d]pyrimidin-3-one]: the 50% inhibitory concentration (IC50) came to 18.5 nM. The figure for `CC(C)n1c(=O)c2cnc(Nc3ccc(N(C)C)cc3)nc2n1-c1cccc(N=S(C)(C)=O)n1` [Example 58, 1-(6-{[Dimethyl(oxo)-λ^6-sulfanylidene]amino}pyridin-2-yl)-6-{[4-(dimethylamino)phenyl]amino}-2-(propan-2-yl)-1H,2H, 3H-pyrazolo[3,4-d]pyrimidin-3-one] is 0.4 nM. The figure for `CC(C)n1c(=O)c2cnc(Nc3ccc(N4CCNCC4)cc3)nc2n1-c1cccc(N=S2(=O)CCCC2)n1` [Example 59, 1-{6-[(1-Oxo-1λ^6-thiolan-1-ylidene)amino]pyridin-2-yl}-6-{[4-(piperazin-1-yl)phenyl]amino}-2-(propan-2-yl)-1H,2H,3H-pyrazolo[3,4-d]pyrimidin-3-one] is 1.2 nM. As for `CC(C)n1c(=O)c2cnc(N(c3ccc(C#N)cc3)c3ccc(C#N)cc3)nc2n1-c1cccc(N=S(C)(C)=O)n1` [Example 60, 4-[(4-Cyanophenyl)[1-(6-{[dimethyl(oxo)-λ^6-sulfanylidene]amino}pyridin-2-yl)-3-oxo-2-(propan-2-yl)-1H,2H,3H-pyrazolo[3,4-d]pyrimidin-6-yl]amino]benzonitrile], the figure is 760 nM; as for `CC(C)n1c(=O)c2cnc(Nc3ccc(Cl)cc3)nc2n1-c1cccc(N=S(C)(C)=O)n1` [Example 61, 6-[(4-Chlorophenyl)amino]-1-(6-{[dimethyl(oxo)-λ^6-sulfanylidene]amino}pyridin-2-yl)-2-(propan-2-yl)-1H,2H,3H-pyrazolo[3,4-d]pyrimidin-3-one], 0.6 nM. For `C=CCn1c(=O)c2cnc(Nc3ccc(Cl)cc3)nc2n1-c1cccc(N=S(C)(C)=O)n1` [Example 62, 6-[(4-Chlorophenyl)amino]-1-(6-{[dimethyl(oxo)-λ^6-sulfanylidene]amino}pyridin-2-yl)-2-(prop-2-en-1-yl)-1H,2H,3H-pyrazolo[3,4-d]pyrimidin-3-one], the half-maximal inhibitory concentration (IC50) amounted to 0.3 nM. For the molecule `C=CCn1c(=O)c2cnc(NC34CC(C3)C4)nc2n1-c1cccc(N=S(C)(C)=O)n1` [Example 63, 6-({Bicyclo[1.1.1]pentan-1-yl}amino)-1-(6-{[dimethyl(oxo)-λ^6-sulfanylidene]amino}pyridin-2-yl)-2-(prop-2-en-1-yl)-1H,2H,3H-pyrazolo[3,4-d]pyrimidin-3-one], the IC50 amounted to 1000 nM. As for `C=CCn1c(=O)c2cnc(Nc3ccc(C(C)(C)C)cc3)nc2n1-c1cccc(N=S(C)(C)=O)n1` [Example 64, 6-[(4-tert-Butylphenyl)amino]-1-(6-{[dimethyl(oxo)-λ^6-sulfanylidene]amino}pyridin-2-yl)-2-(prop-2-en-1-yl)-1H,2H,3H-pyrazolo[3,4-d]pyrimidin-3-one], the figure is 1.6 nM; as for `CC(C)n1c(=O)c2cnc(Nc3ccc(F)cc3F)nc2n1-c1cccc(N=S(C)(C)=O)n1` [Example 65, 6-[(2,4-Difluorophenyl)amino]-1-(6-{[dimethyl(oxo)-λ^6-sulfanylidene]amino}pyridin-2-yl)-2-(propan-2-yl)-1H,2H,3H-pyrazolo[3,4-d]pyrimidin-3-one], 68 nM; as for `C=CCn1c(=O)c2cnc(Nc3ccc(F)c(F)c3)nc2n1-c1cccc(N=S(C)(C)=O)n1` [Example 66, 6-[(3,4-Difluorophenyl)amino]-1-(6-{[dimethyl(oxo)-λ^6-sulfanylidene]amino}pyridin-2-yl)-2-(prop-2-en-1-yl)-1H,2H,3H-pyrazolo[3,4-d]pyrimidin-3-one], 0.5 nM. Turning to `C=CCn1c(=O)c2cnc(Nc3ccc(N4C[C@@H]5C[C@H]4CO5)cc3)nc2n1-c1cccc(N=S(C)(C)=O)n1` [Example 68, 1-(6-{[Dimethyl(oxo)-λ^6-sulfanylidene]amino}pyridin-2-yl)-6-({4-[(1S,4S)-2-oxa-5-azabicyclo[2.2.1]heptan-5-yl]phenyl}amino)-2-(prop-2-en-1-yl)-1H,2H,3H-pyrazolo[3,4-d]pyrimidin-3-one], the IC50 was determined as 0.3 nM.
